Measured values taken from US20260174780A1, “BISMUTH-THIOL COMPOSITIONS AND METHODS FOR TREATING INFLAMMATORY DISEASES” (Microbion Corporation, priority 2022, published 2026).
Entries after “also recorded” stand apart in the source; their conditions may differ. Like-named read-outs stand apart in the source and are kept apart here.

How the values were obtained:
[1] = system: cytokines in bronchoalveolar lavage fluid (BALF); assay: Cytokines in BALF of rats after a single inhaled dose of BisEDT; format: in vivo, Sprague-Dawley rats; details: day 8 compared to day 2; single low (1 mg/kg) or high (7 mg/kg) inhaled dose
Procedure: Two concentrations (low: 1 mg/kg; high: 7 mg/kg) of BisEDT were evaluated by inhalation in rats.
Bronchoalveolar lavage fluid (BALF) samples from day 2 (D2) and day 8 (D8) post treatment were analyzed for the expression of cytokines.
Protocol: Sprague-Dawley rats were randomly assigned to a study group based on body weight. Adult, male Sprague-Dawley rats (n=6 per group) were exposed to the aerosolized test article (TA) with a single dose on Study Day 1. Groups 1, 2, and 3 were exposed by inhalation to 1 mg/kg (targeted presented dose) of BisEDT sample 1, BisEDT sample 2, or BisEDT sample 3, respectively. Groups 4, 5, and 6 were exposed by inhalation to 7 mg/kg (targeted presented dose) of BisEDT sample 1, BisEDT sample 2, or BisEDT sample 3, respectively. Animals were necropsied on Study Days 2, 4, and 8, and terminal blood collections were conducted at that time.
Blood Processing: All blood samples were placed into a tube containing K3EDTA, and mixed thoroughly. Following mixing, blood obtained at the time of euthanasia was divided in half. Half of the blood sample was stored frozen without further processing pending bioanalysis. The remaining half was placed on wet ice before being processed to plasma by centrifugation at 2500×g for ≥10 minutes at 2 to 8° C. Plasma was aliquoted into a cryovial(s), snap frozen in liquid nitrogen, and stored at −80° C.±10° C. until cytokine analysis was performed using ELISA kits following manufacturer's instructions.

[2] = Earlier 28-day tolerability work in rats; details: 28 days
[3] = system: FITC-induced contact hypersensitivity; assay: FITC-induced contact hypersensitivity in mice (ear swelling, histopathology, ear cytokines); format: in vivo, BALB/c mice
Procedure: Protocol: Male BALB/c mice at 8 weeks old are used in the study.
All animals, except those in Group 1 (Sham), were sensitized topically (TOP) on the shaved abdominal skin with 200 μL of 0.5% Fluorescein Isothiocyanate (FITC) dissolved in 20% tributyrin in acetone on Days 1 and 2. On Day 7, animals were challenged by applying 20 μL of 0.5% FITC solution onto both sides of the right ear. Animals in Group 1 received nothing.
Vehicle, BisEDT test articles and reference compound (tacrolimus) were administered topically (TOP) once daily (QD) from Day 6 to Day 9 for 4 consecutive days (1 hour before FITC challenge on Day 7). The vehicle for BisEDT was phosphate-buffered saline (PBS).
• 2.5 mg/mL BisEDT topical suspension • 1.25 mg/mL BisEDT topical suspension—prepared as a 1:1 dilution of 2.5 mg/mL BisEDT topical suspension in sterile water and vortexed to ensure homogeneity
Analysis: Ear swelling was measured by an experimenter blinded to treatment group, with a dial thickness micrometer gauge as an index of inflammation 30 min before dosing on Days 7, 8, 9 and 10. On Day 10, ear swelling was measured at 24 hours after the last dosing. Ear edema was calculated by subtracting the thickness of Day 7 (normal control) from Day n (treated ear). Percentage inhibition was calculated according to the formula: (Ic−It)/Ic×100, where Ic and It refer to the increase of ear thickness (mm) both in the control and treated animals. Body weight was recorded daily during the study period.
The animals were sacrificed on Day 10 and the ears were then harvested and weighed. Half of the right ear was fixed in 10% formalin for histopathology, and the other half was processed for cytokine measurement (IL-18, IL-6, and IL-10) using ThermoFisher Mouse ProcartaPlex Kit by Luminex.

TGF-β = TGF-β expression in plasma of M. avium-infected mice; format: in vivo; details: 28 days treatment, low, med and high dose, compared to vehicle
Procedure: Protocol: M. avium infection was initiated in mice, and 3 weeks were allowed to pass to establish the infection. The animals were treated for 28 days and grouped according to dosage: vehicle, low dose pravibismane, med dose pravibismane, and high dose pravibismane. At the end of treatment, plasma samples were collected for analysis.

HUVEC cells = assay: Cytokine ELISA in HUVEC cells; format: cell-based, human; details: 0.5, 1, 2 or 4 μg/mL, 24 hours, compared to untreated cells
Procedure: (§1) Protocol: HUVEC cells were grown in tissue culture flasks and a 24-well plate was seeded with 2×10^5 cells/well and incubated at 37° C. and 5% CO2 for 48 hours. Select wells were treated with either 4 μg/mL, 2 μg/mL, 1 μg/mL, or 0.5 μg/mL BisEDT or left untreated as a control and incubated at 37° C. and 5% CO2 for 24 hours. Cell culture supernatant was collected from each well and stored at −20° C. until further ELISA analysis. On the day of the ELISA assays to determine the expression of each cytokine, cell culture supernatant was thawed, and the assays performed following the manufacturer's instructions. Cells were collected for RNA isolation using Qiagen RNeasy kit using manufacturer's instructions. Briefly, genomic DNA was degraded with DNase (Roche) and samples were incubated at 37° C. for 1 hour followed by 3 μL DNase inactivation reagent (Invitrogen) incubated at 37° C. for 2 minutes. Samples were centrifuged at maximum speed for 5 minutes to remove the inactivation reagent. RNA concentration and quality was evaluated using a Nanodrop. RNA samples were utilized to generate cDNA using cDNA synthesis kit (Bio-Rad). qPCR for AIM2 and actin (housekeeping gene) was conducted using SYBR green kit (Bio-Rad) along with standard.

neutrophils = assay: In vitro model of neutrophil recruitment to the lung (transmigration, supernatant and conditioned media cytokines); format: cell-based, human; details: for viability of the cells: CF-conditioned media and normal media (LTB4); for neutrophil transmigration / recruitment: CF-conditioned media and LTB4
Description: FIG. 6 provides a description of the assay for in vitro modeling of neutrophil recruitment to the lung.
FIG. 7 provides a summary of the process for comparing cellular and soluble inflammatory markers in vitro.
The neutrophils used are primary cells harvested from normal healthy volunteers immediately prior to the study. Cellular and soluble inflammatory markers were compared in vitro as described in FIG. 7.

[4] = system: M. abscessus clinical strains; assay: Activity in the macrophage system against M. abscessus clinical strains; format: cell-based; details: all three clinical strains tested
AIM2 inflammasome = assay: qPCR of AIM2 in HUVEC cells; format: cell-based, human; details: HUVEC cells, 0.5, 1, 2 or 4 μg/mL, 24 hours, compared to untreated cells
Procedure: as §1

[5] = topical, compared to vehicle control

In the case of `C1C[S][Bi]([S]CC[S][Bi]2[S]CC[S]2)[S]1` [BisEDT, 1,2-(Bis(1,3-dithia-2-bismolane)thio)ethane], the “expression of IL-1β in BALF” value [1] is reported as “Consistent reduction”, the “expression of IL-17A in BALF” value [1] is reported as “Consistent reduction” and the “expression of TNF-α in BALF” value [1] is reported as “Consistent reduction”. The “dose highly tolerated without adverse effects” value [2] was 59 µg/kg/day, the “overall effect in the FITC-induced contact hypersensitivity model” value ([3]; mouse, in vivo) was “overall anti-inflammatory effect” and the ear swelling ([3]; topical QD x 4, 2.5 and 1.25 mg/mL, compared to vehicle control) was “statistically significant and dose-dependent reduction”. For the same molecule, the epidermal thickness [3, 5] was “significant reduction”, the histopathological score [3, 5] was “significant reduction” and the “expression of TGF-β” value (TGF-β) was “consistent reduction”. For the same molecule, the “expression of IL-18” value (HUVEC cells) was “Consistent reduction”, the “expression of TNF-α” value (HUVEC cells) was “Consistent reduction” and the “activity of caspase-1 (FLICA)” value (neutrophils) was “slightly reduced”. For the same molecule, the “IL-18 level in transmigration supernatant” value (neutrophils; 6 hours, compared to vehicle) was “appreciably lower level”, the “viability of the cells” value (neutrophils) was “very high level of viability” and the “viability of the cells” value (neutrophils; listed as pravibismane) was “no effect on cell viability”. The “IL-18 in conditioned media” value (neutrophils; compared to vehicle) was “down-regulated”, the “neutrophil transmigration / recruitment” value (neutrophils; compared to vehicle) was “lower level of neutrophil transmigration; also recorded: inhibits neutrophil recruitment” and the “neutrophil transmigration / recruitment” value (neutrophils; compared to vehicle, listed as pravibismane) was “reduced transmigration efficiency”. The “IL-6 in conditioned media” value (neutrophils; conditioned media) was “Very minor changes”, the “expression of VEGF” value (neutrophils; conditioned media) was “small increase” and the “interferon-gamma in conditioned media” value (neutrophils; conditioned media) was “Very minor changes”. For the same molecule, the “activity of caspase-1 (FLICA)” value (neutrophils; listed as pravibismane) was “slight reduction”, the IL-10 secretion (neutrophils; summary) was “substantially increased” and the “CCL4 (macrophage inflammatory protein)” value (neutrophils; transmigration supernatant, 6-hour time point) was “reduced”. The “activity against M. abscessus in the macrophage system” value [4] was “very active (bactericidal)” and the “AIM2 inflammasome expression (AIM2/Actin copy number)” value (AIM2 inflammasome) was “inhibit AIM2 inflammasome expression”.
